Source: patent US20030206968A1, “Fungicidal mixtures” (priority 1999, published 2003)

Assays:
Assay type in all cases: in vivo
[1] = test system: Alternaria solani; assay: Greenhouse, Alternaria solani on tomatoes, 1 day residual; conditions: Example 25; rate 16 g/ha
Procedure: (§1) The trials are carried out under greenhouse (Examples 1 to 32) or field conditions (Examples 33 to 40) in residual or curative applications. The fungicides are applied in single treatments, or in a combination comprising an azolopyrimidine of formula I and a compound selected from the classes (A), (B) and (C) as defined above. The compounds are applied in form of an aqueous spray mix obtained from a concentrated formulation or the technical material.
(§2) 1. Seed is planted in 6 cm diameter plastic pots and maintained in the greenhouse.
(§3) 2. When the primary leaf is fully expanded in the case of cereals or several leaves are present in the case of dicots, formulated test compounds are sprayed with a three nozzle overhead fungicide sprayer to near run-off. Alternatively, a single nozzle overhead track sprayer is used for application of the compounds to cereals at a rate of 200 l/ha. Plants are then allowed to air-dry.
(§4) 3. Inoculation precedes treatment in the case of curative evaluations and follows treatment in case of residual evaluations. For inoculation of powdery mildew disease, plants are set up on greenhouse benches with bottom watering mats and inoculated by dusting them with conidia from infected plants. Between inoculation and treatment for curative evaluations and between treatment and inoculation for residual evaluations, plants are maintained in the greenhouse with bottom watering.
For inoculation of non-powdery mildew diseases, an aqueous spore suspension of the pathogen is applied to the plant and the plants are kept 1-2 days in a moist infection chamber before being returned to the greenhouse where they are maintained by bottom watering.
(§5) 4. Disease on the foliage as percent leaf area with disease symptoms/signs is evaluated about 7 days after inoculation. In the case of wheat, the tips and bases of the leaves are excluded from the evaluation. [formula]
(§6) 1. Technical compounds are formulated in a solvent/surfactant system consisting of 5% acetone and 0.05% Tween 20 in deionized water. Compounds are dissolved in acetone prior to addition of the water; the Tween 20 can be added through either the acetone or the water. Dilutions are made using the solvent/surfactant system. Formulated compounds are prepared using deionized water.
(§7) 2. Two kinds of controls are included: Plants treated with the solvent/surfactant solution and inoculated (Solvent Blank). Untreated plants which are inoculated (Inoculated Control).
(§8) Assessments of the diseases took place at the indicated day after the application of the compounds. Per cent infected leaf area infected was evaluated. The efficacy of the compounds/compounds mixtures to control the diseases was calculated by using the formula given above under item 4: […]
(§9) Synergy was calculated using the % disease control values of specific treatments for the two COLBY formula given hereinabove
Fungicidal efficacy of the mixture of Azolopyrimidine C and different fungicides (1 day residual) against Alternaria solani on tomatoes The tank mix was obtained from an SC formulation containing 100 g Azolopyrimidine A per liter and WP formulations of dithianon (750 g/kg), captan (500 g/kg), cyprodinil (750 g/kg), mancozeb (800 g/kg), or a SC formulation of chlorothalonil (500 g/l), or a FS formulation of fenpiclonil (400 g/l), spectively.

[2] = test system: Botrytis cinerea; assay: Apple fruit Botrytis test, Botrytis cinerea on apple fruits, 3 day residual; conditions: Example 5
Procedure: 1. Apples (Malus X domestica Borkh.) variety Golden Delicious are disinfected by washing them briefly in 70% ethanol. After drying the apples are marked with four short equal-distant lines indicating the positions to be wounded.
2. Corresponding with the marks, four holes are poked around the apple equator with a pipette tip. 10 μl of the treatment solution are pipetted into each hole.
3. Three hours after application, 10 μl of a conidial suspension of Botrytis cinerea are pipetted into each. For incubation, the treated/inoculated apples are set up for five days.
4. Disease occurs as rotten apple tissue surrounding the inoculated wounds. The diameter of the rotten zone around each wound is measured.
1. Technical compounds are formulated in a solvent system consisting of 5% acetone and 0.05% Tween 20 in deionized water. Compounds are dissolved in acetone prior to dilution with water. Formulated compounds are prepared using deionized water.
2. Three kinds of controls are included:
Assessments of the diseases took place at the indicated day after the application of the compounds. Per cent infected leaf area infected was evaluated. The efficacy of the compounds/compounds mixtures to control the diseases was calculated by using the formula: [formula]
as §9
Fungicidal efficacy of the mixture of Azolopyrimidine A+vinclozolin (3 day residual) against Botrytis cinerea on apple fruits The tank mix was obtained from technical material of Azolopyrimidine A and a WG formulation containing 500 g vinclozolin per kg.
Fungicidal efficacy of the mixture of Azolopyrimidine A+cyprodinil (3 day residual) against Botrytis cinerea on apple fruits The tank mix was obtained from technical material of Azolopyrimidine A and a WG formulation containing 750 g cyprodinil per kg.
Fungicidal efficacy of the mixture of Azolopyrimidine A+benomyl (3 day residual) against Botrytis cinerea on apple fruits The tank mix was obtained from technical material of Azolopyrimidine A and a WP formulation containing 500 g benomyl per kg.

[3] = test system: Erysiphe cichoracearum; assay: Greenhouse, Erysiphe cichoracearum on cucumbers, 1 day residual; conditions: Example 24
Procedure: as §1, §2, §3, §4, §5, §6, §7, §8, §9
Fungicidal efficacy of the mixture of Azolopyrimidine C+triforine (1 day residual) against Erysiphe cichoracearum on cucumbers
the tank mix was obtained from a SC formulation containing 100 g of Azolopyrimidine C per liter and an DC formulation containing and 190 g of triforine per liter.
Fungicidal efficacy of the mixture of Azolopyrimidine C+cyprodinil (1 day residual) against Erysiphe cichoracearum on cucumbers The tank mix was obtained from a SC formulation containing 100 g of Azolopyrimidine C per liter and a WG formulation containing and 750 g of cyprodinil per kg.

[4] = test system: Blumeria graminis; assay: Field test, Blumeria graminis on wheat; conditions: 17 days after application
Procedure: as §1
For the field study formulated Azolopyrimidine A, B or C and formulated compounds from the classes (A), (B) and (C) were used.
as §8, §9
The compounds are applied according to good agricultural practice in the form of an aqueous spray mix obtained from a concentrated formulation or the technical material at a rate of 400 l/ha. The disease control is evaluated according to the formula given for the greenhouse tests.
(§10) Fungicidal efficacy of the mixture of (S)-Azolopyrimidine C+cyproconazole in the field against Blumeria graminis on wheat 17 days after application The tank mix was obtained from a SC formulation containing 100 g (S)-Azolopyrimidine C per liter and an EC formulation containing 60 g cyproconazole per liter.
as §10, with “C+azoxystrobin” for “C+cyproconazole”, “a SC” for “an EC”, “250” for “60”, “azoxystrobin” for “cyproconazole”, “kg.” for “liter.”
Fungicidal efficacy of the mixture of Azolopyrimidine A and different cereal fungicides in the field against Blumeria graminis on wheat 15 days after application The tank mix was obtained from an SC formulation containing 100 g Azolopyrimidine A per liter and commercially available formulations of metconazole, epoxiconazole or kresoxim methyl, respectively.

Compound: N#Cc1c(Cl)c(Cl)c(Cl)c(C#N)c1Cl [chlorothalonil]
- Observed Efficacy [1]: 13%

Compound: O=C1C2CC=CCC2C(=O)N1SC(Cl)(Cl)Cl (stereo not shown) [captan]
- Observed Efficacy [1]: 18%

Compound: Cc1cc(C2CC2)nc(Nc2ccccc2)n1 [cyprodinil]
- Observed Efficacy ([2]; dose rate 0.1 ppm): 2%
- Observed Efficacy ([2]; dose rate 1 ppm): 46%
- Observed Efficacy ([3]; dose rate 4 ppm): 0%
- Observed Efficacy ([3]; dose rate 16 ppm): 29%
- Observed Efficacy [1]: 13%

Compound: mancozeb
- Observed Efficacy [1]: 27%

Compound: CC(C1CC1)C(O)(Cn1cncn1)c1ccc(Cl)cc1 (stereo not shown) [cyproconazole]
- Observed Efficacy ([4]; cyproconazole 15 g/ha alone): 86
- Observed Efficacy ([4]; cyproconazole 30 g/ha alone): 82
